Data from patent publication US5441941A, “1,2-dihydroellipticines with activity against CNS specific cancer” (The United States of America as represented by the …, priority 1993, dated 1995).

What was measured:
[1] = system: MOLT-4; assay: cells; details: Homo sapiens
[2] = system: LXFL 529; assay: cells; details: Homo sapiens
[3] = system: SW-620; assay: cells; details: Homo sapiens
[4] = system: 786-0; assay: cells; details: Homo sapiens
[5] = system: CCRF-CEM; assay: NCI in vitro screen, SRB percent growth, Leukemia
[6] = system: LOX IMVI; assay: NCI in vitro screen, SRB percent growth, Melanoma
[7] = system: SK-MEL-5; assay: NCI in vitro screen, SRB percent growth, Melanoma
[8] = system: SF-268; assay: NCI in vitro screen, SRB percent growth, CNS Cancer
[9] = system: SF-539; assay: as above
[10] = system: SNB-19; assay: as above
[11] = system: SNB-75; assay: as above
[12] = system: SNB-78; assay: as above
[13] = system: COLO 205; assay: NCI in vitro screen, SRB percent growth, Colon Cancer
[14] = system: HCT-116; assay: as above
[15] = system: KM12; assay: as above
[16] = system: IGROV1; assay: NCI in vitro screen, SRB percent growth, Ovarian Cancer
[17] = system: CNS cancer cell lines; assay: NCI in vitro screen, overall result on CNS cancer cell lines; details: Tables I and II
[18] = MOLT-4, read-out: Percent Growth
[19] = LXFL 529, read-out: Percent Growth
[20] = SW-620, read-out: Percent Growth
[21] = 786-0, read-out: Percent Growth
[22] = Log10 Concentration -4.0, 100 µM
[23] = Log10 Concentration -7.0, 0.1 µM

## Cc1ccc2[nH]c3c(C)c4c(c(C)c3c2c1)CN(C)C=C4 [Formula XI]
[1]; MOLT-4
  GI50: 2.14 µM
[1]; MOLT-4, read-out: LC-50
  CC50: > 100 µM
[1]; [18]
  activity at 0.01 µM: 104%
  activity at 0.1 µM: 101%
  activity at 1 µM: 68%
  activity at 10 µM: 14%
  activity at 100 µM: -50%
[1]; MOLT-4, read-out: TGI
  IC (TGI): 16.5 µM
[2]; LXFL 529
  GI50: 0.353 µM
[2]; LXFL 529, read-out: LC-50
  CC50: 9.23 µM
[2]; [19]
  activity at 0.01 µM: 78%
  activity at 0.1 µM: 68%
  activity at 1 µM: 35%
  activity at 10 µM: -53%
  activity at 100 µM: -84%
[2]; LXFL 529, read-out: TGI
  IC (TGI): 2.51 µM
[3]; SW-620
  GI50: 0.279 µM
[3]; SW-620, read-out: LC-50
  CC50: 28.6 µM
[3]; [20]
  activity at 0.01 µM: 89%
  activity at 0.1 µM: 76%
  activity at 1 µM: 18%
  activity at 10 µM: -21%
  activity at 100 µM: -85%
[3]; SW-620, read-out: TGI
  IC (TGI): 2.87 µM
[4]; 786-0
  GI50: 0.523 µM
[4]; 786-0, read-out: LC-50
  CC50: 37.3 µM
[4]; [21]
  activity at 0.01 µM: 102%
  activity at 0.1 µM: 96%
  activity at 1 µM: 32%
  activity at 10 µM: 3%
  activity at 100 µM: -90%
[4]; 786-0, read-out: TGI
  IC (TGI): 10.7 µM
[5]; [22]
  Percent Growth: -35%
[5]; Log10 Concentration -5.0
  Percent Growth: 13%
[5]; Log10 Concentration -6.0, 1 µM
  Percent Growth: 74%
[5]; [23]
  Percent Growth: 94%
[5]; Log10 Concentration -8.0
  Percent Growth: 102%
[5]; PG=0
  TGI: 18 µM
[5]; PG=+50
  GI50: 2.48 µM
[5]; read-out: LC-50, PG=-50
  CC50: > 100 µM
[6]; [22]
  Percent Growth: -81%
[6]; Log10 Concentration -5.0
  Percent Growth: 26%
[6]; Log10 Concentration -6.0, 1 µM
  Percent Growth: 82%
[6]; [23]
  Percent Growth: 94%
[6]; Log10 Concentration -8.0
  Percent Growth: 98%
[6]; PG=0
  TGI: 17.4 µM
[6]; PG=+50
  GI50: 3.67 µM
[6]; read-out: LC-50, PG=-50
  CC50: 51.4 µM
[7]; [22]
  Percent Growth: -90%
[7]; Log10 Concentration -5.0
  Percent Growth: -79%
[7]; Log10 Concentration -6.0, 1 µM
  Percent Growth: 77%
[7]; [23]
  Percent Growth: 94%
[7]; Log10 Concentration -8.0
  Percent Growth: 92%
[7]; PG=0
  TGI: 3.11 µM
[7]; PG=+50
  GI50: 1.49 µM
[7]; read-out: LC-50, PG=-50
  CC50: 6.49 µM
[8]; [22]
  Percent Growth: -83%
[8]; Log10 Concentration -5.0
  Percent Growth: -94%
[8]; Log10 Concentration -6.0, 1 µM
  Percent Growth: -39%
[8]; [23]
  Percent Growth: 96%
[8]; Log10 Concentration -8.0
  Percent Growth: 101%
[8]; PG=0
  TGI: 0.514 µM
[8]; PG=+50
  GI50: 0.218 µM
[8]; read-out: LC-50, PG=-50
  CC50: 1.6 µM
[9]; [22]
  Percent Growth: -90%
[9]; Log10 Concentration -5.0
  Percent Growth: -58%
[9]; Log10 Concentration -6.0, 1 µM
  Percent Growth: 6%
[9]; [23]
  Percent Growth: 92%
[9]; Log10 Concentration -8.0
  Percent Growth: 99%
[9]; PG=0
  TGI: 1.23 µM
[9]; PG=+50
  GI50: 0.305 µM
[9]; read-out: LC-50, PG=-50
  CC50: 7.56 µM
[10]; [22]
  Percent Growth: -57%
[10]; Log10 Concentration -5.0
  Percent Growth: -51%
[10]; Log10 Concentration -6.0, 1 µM
  Percent Growth: 48%
[10]; [23]
  Percent Growth: 97%
[10]; Log10 Concentration -8.0
  Percent Growth: 104%
[10]; PG=0
  TGI: 3.04 µM
[10]; PG=+50
  GI50: 0.897 µM
[10]; read-out: LC-50, PG=-50
  CC50: 9.78 µM
[11]; [22]
  Percent Growth: -97%
[11]; Log10 Concentration -5.0
  Percent Growth: -72%
[11]; Log10 Concentration -6.0, 1 µM
  Percent Growth: 20%
[11]; [23]
  Percent Growth: 109%
[11]; Log10 Concentration -8.0
  Percent Growth: 110%
[11]; PG=0
  TGI: 1.66 µM
[11]; PG=+50
  GI50: 0.462 µM
[11]; read-out: LC-50, PG=-50
  CC50: 5.75 µM
[12]; [22]
  Percent Growth: -75%
[12]; Log10 Concentration -5.0
  Percent Growth: -33%
[12]; Log10 Concentration -6.0, 1 µM
  Percent Growth: 38%
[12]; [23]
  Percent Growth: 128%
[12]; Log10 Concentration -8.0
  Percent Growth: 131%
[12]; PG=0
  TGI: 3.41 µM
[12]; PG=+50
  GI50: 0.738 µM
[12]; read-out: LC-50, PG=-50
  CC50: 25.2 µM
[13]; [22]
  Percent Growth: -28%
[13]; Log10 Concentration -5.0
  Percent Growth: -23%
[13]; Log10 Concentration -6.0, 1 µM
  Percent Growth: 24%
[13]; [23]
  Percent Growth: 92%
[13]; Log10 Concentration -8.0
  Percent Growth: 119%
[13]; PG=0
  TGI: 3.2 µM
[13]; PG=+50
  GI50: 0.416 µM
[13]; read-out: LC-50, PG=-50
  CC50: > 100 µM
[14]; [22]
  Percent Growth: -81%
[14]; Log10 Concentration -5.0
  Percent Growth: 3%
[14]; Log10 Concentration -6.0, 1 µM
  Percent Growth: 83%
[14]; [23]
  Percent Growth: 103%
[14]; Log10 Concentration -8.0
  Percent Growth: 113%
[14]; PG=0
  TGI: 10.9 µM
[14]; PG=+50
  GI50: 2.58 µM
[14]; read-out: LC-50, PG=-50
  CC50: 42.8 µM
[15]; [22]
  Percent Growth: -93%
[15]; Log10 Concentration -5.0
  Percent Growth: -48%
[15]; Log10 Concentration -6.0, 1 µM
  Percent Growth: 38%
[15]; [23]
  Percent Growth: 95%
[15]; Log10 Concentration -8.0
  Percent Growth: 97%
[15]; PG=0
  TGI: 2.78 µM
[15]; PG=+50
  GI50: 0.622 µM
[15]; read-out: LC-50, PG=-50
  CC50: 11 µM
[16]; [22]
  Percent Growth: -73%
[16]; Log10 Concentration -5.0
  Percent Growth: -15%
[16]; Log10 Concentration -6.0, 1 µM
  Percent Growth: 30%
[16]; [23]
  Percent Growth: 85%
[16]; Log10 Concentration -8.0
  Percent Growth: 97%
[16]; PG=0
  TGI: 4.71 µM
[16]; PG=+50
  GI50: 0.438 µM
[16]; read-out: LC-50, PG=-50
  CC50: 39.9 µM
[17]
  effect against CNS cancer cell lines: particularly effective against CNS cancer cell lines
